Like-named read-outs stand apart in the source and are kept apart here.
Experiments:
[1] = test system: K. pneumoniae ATCC 10031 (SEN) and K. pneumoniae ATCC 700603 (MDR); experiment: Adaptive laboratory evolution (ALE), relative MIC of evolved lines; type: cell-based, Klebsiella pneumoniae
How it was run: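 Ten parallel populations per antibiotic–ancestor pair were evolved in MHB at 37 °C, starting near 50% growth-inhibiting drug. Every 72 h they were passaged into 0.5–2.5× increasing concentrations, keeping the highest-drug well with OD600 > 0.2.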

[2] = test system: K. pneumoniae ATCC 10031 (SEN) and K. pneumoniae ATCC 700603 (MDR); experiment: Frequency-of-resistance (FoR) assay, relative MIC of mutants; type: cell-based, Klebsiella pneumoniae; conditions: for MIC: Klebsiella pneumoniae
How it was run: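 About 10^10 cells per strain were plated on MHB agar containing antibiotic at concentrations where the strain is susceptible, 48 h at 37 °C, in triplicate. Relative MIC = MICevolved/MICancestor.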

[3] = KP-MDR (ATCC 700603), evolved line 2, MIC of evolved line / MIC of ancestor
[4] = KP-MDR (ATCC 700603), evolved line 3, MIC of evolved line / MIC of ancestor
[5] = KP-MDR (ATCC 700603), evolved line 4, MIC of evolved line / MIC of ancestor
[6] = KP-MDR (ATCC 700603), evolved line 5, MIC of evolved line / MIC of ancestor
[7] = KP-MDR (ATCC 700603), evolved line 6, MIC of evolved line / MIC of ancestor
[8] = KP-MDR (ATCC 700603), evolved line 7, MIC of evolved line / MIC of ancestor
[9] = KP-MDR (ATCC 700603), evolved line 8, MIC of evolved line / MIC of ancestor
[10] = KP-MDR (ATCC 700603), evolved line 9, MIC of evolved line / MIC of ancestor
[11] = KP-MDR (ATCC 700603), evolved line 10, MIC of evolved line / MIC of ancestor
[12] = KP-MDR (Klebsiella pneumoniae ATCC 700603), evolved line 2 adapted to the named antibiotic
[13] = KP-MDR (Klebsiella pneumoniae ATCC 700603), evolved line 8 adapted to the named antibiotic
[14] = KP-SEN (ATCC 10031), evolved line 2, MIC of evolved line / MIC of ancestor
[15] = KP-SEN (ATCC 10031), evolved line 3, MIC of evolved line / MIC of ancestor
[16] = KP-SEN (ATCC 10031), evolved line 5, MIC of evolved line / MIC of ancestor
[17] = KP-SEN (ATCC 10031), evolved line 6, MIC of evolved line / MIC of ancestor
[18] = KP-SEN (ATCC 10031), evolved line 8, MIC of evolved line / MIC of ancestor
[19] = KP-SEN (ATCC 10031), evolved line 9, MIC of evolved line / MIC of ancestor
[20] = KP-SEN (Klebsiella pneumoniae ATCC 10031), evolved line 8 adapted to the named antibiotic
[21] = Klebsiella pneumoniae ATCC 10031 (KP-SEN), evolved line 2
[22] = Klebsiella pneumoniae ATCC 10031 (KP-SEN), evolved line 3
[23] = Klebsiella pneumoniae ATCC 10031 (KP-SEN), evolved line 5
[24] = Klebsiella pneumoniae ATCC 10031 (KP-SEN), evolved line 6
[25] = Klebsiella pneumoniae ATCC 10031 (KP-SEN), evolved line 8
[26] = Klebsiella pneumoniae ATCC 10031 (KP-SEN), evolved line 9
[27] = Klebsiella pneumoniae ATCC 700603 (KP-MDR), evolved line 2
[28] = Klebsiella pneumoniae ATCC 700603 (KP-MDR), evolved line 3
[29] = Klebsiella pneumoniae ATCC 700603 (KP-MDR), evolved line 4
[30] = Klebsiella pneumoniae ATCC 700603 (KP-MDR), evolved line 5
[31] = Klebsiella pneumoniae ATCC 700603 (KP-MDR), evolved line 6
[32] = Klebsiella pneumoniae ATCC 700603 (KP-MDR), evolved line 7
[33] = Klebsiella pneumoniae ATCC 700603 (KP-MDR), evolved line 8
[34] = Klebsiella pneumoniae ATCC 700603 (KP-MDR), evolved line 9
[35] = Klebsiella pneumoniae ATCC 700603 (KP-MDR), evolved line 10
[36] = Klebsiella pneumoniae ATCC 10031 (KP-SEN), evolved line 1 versus ancestor
[37] = Klebsiella pneumoniae ATCC 10031 (KP-SEN), evolved line 2 versus ancestor
[38] = Klebsiella pneumoniae ATCC 10031 (KP-SEN), evolved line 3 versus ancestor
[39] = Klebsiella pneumoniae ATCC 700603 (KP-MDR), evolved line 1 versus ancestor
[40] = Klebsiella pneumoniae ATCC 700603 (KP-MDR), evolved line 2 versus ancestor
[41] = Klebsiella pneumoniae ATCC 700603 (KP-MDR), evolved line 3 versus ancestor
[42] = read-out: MIC of evolved line, Klebsiella pneumoniae ATCC 10031 (KP-SEN), evolved line 1
[43] = read-out: MIC of evolved line, Klebsiella pneumoniae ATCC 10031 (KP-SEN), evolved line 2
[44] = read-out: MIC of evolved line, Klebsiella pneumoniae ATCC 700603 (KP-MDR), evolved line 1
[45] = read-out: MIC of evolved line, Klebsiella pneumoniae ATCC 700603 (KP-MDR), evolved line 2

## Nc1nc(-n2cc(C(=O)O)c(=O)c3cc(F)c(N4CC(O)C4)c(Cl)c32)c(F)cc1F [Delafloxacin]
[1]; [3]
  Relative MIC: 64
[1]; [4]
  Relative MIC: 16
[1]; [5]
  Relative MIC: 32
[1]; [6]
  Relative MIC: 32
[1]; [7]
  Relative MIC: 128
[1]; [8]
  Relative MIC: 128
[1]; [9]
  Relative MIC: 64
[1]; [10]
  Relative MIC: 64
[1]; [11]
  Relative MIC: 64
[1]; [12]
  Relative MIC (log10): 1.806
[1]; KP-MDR (Klebsiella pneumoniae ATCC 700603), evolved line 6 adapted to the named antibiotic
  Relative MIC (log10): 2.107
[1]; KP-MDR (Klebsiella pneumoniae ATCC 700603), evolved line 7 adapted to the named antibiotic
  Relative MIC (log10): 2.107
[1]; [13]
  Relative MIC (log10): 1.806
[1]; KP-MDR (Klebsiella pneumoniae ATCC 700603), evolved line 10 adapted to the named antibiotic
  Relative MIC (log10): 1.806
[1]; KP-SEN (ATCC 10031), evolved line 1, MIC of evolved line / MIC of ancestor
  Relative MIC: 16384
[1]; [14]
  Relative MIC: 8192
[1]; [15]
  Relative MIC: 16384
[1]; KP-SEN (ATCC 10031), evolved line 4, MIC of evolved line / MIC of ancestor
  Relative MIC: 8192
[1]; [16]
  Relative MIC: 16384
[1]; [17]
  Relative MIC: 16384
[1]; KP-SEN (ATCC 10031), evolved line 7, MIC of evolved line / MIC of ancestor
  Relative MIC: 8192
[1]; [18]
  Relative MIC: 65536
[1]; [19]
  Relative MIC: 65536
[1]; KP-SEN (Klebsiella pneumoniae ATCC 10031), evolved line 1 adapted to the named antibiotic
  Relative MIC (log10): 4.214
[1]; KP-SEN (Klebsiella pneumoniae ATCC 10031), evolved line 3 adapted to the named antibiotic
  Relative MIC (log10): 4.214
[1]; KP-SEN (Klebsiella pneumoniae ATCC 10031), evolved line 7 adapted to the named antibiotic
  Relative MIC (log10): 3.913
[1]; [20]
  Relative MIC (log10): 4.816
[1]; KP-SEN (Klebsiella pneumoniae ATCC 10031), evolved line 9 adapted to the named antibiotic
  Relative MIC (log10): 4.816
[1]; Klebsiella pneumoniae ATCC 10031 (KP-SEN), evolved line 1
  Relative MIC: 16384
[1]; [21]
  Relative MIC: 8192
[1]; [22]
  Relative MIC: 16384
[1]; Klebsiella pneumoniae ATCC 10031 (KP-SEN), evolved line 4
  Relative MIC: 8192
[1]; [23]
  Relative MIC: 16384
[1]; [24]
  Relative MIC: 16384
[1]; Klebsiella pneumoniae ATCC 10031 (KP-SEN), evolved line 7
  Relative MIC: 8192
[1]; [25]
  Relative MIC: 65536
[1]; [26]
  Relative MIC: 65536
[1]; [27]
  Relative MIC: 64
[1]; [28]
  Relative MIC: 16
[1]; [29]
  Relative MIC: 32
[1]; [30]
  Relative MIC: 32
[1]; [31]
  Relative MIC: 128
[1]; [32]
  Relative MIC: 128
[1]; [33]
  Relative MIC: 64
[1]; [34]
  Relative MIC: 64
[1]; [35]
  Relative MIC: 64
[2]; [36]
  Relative MIC: 32
[2]; [37]
  Relative MIC: 64
[2]; [38]
  Relative MIC: 32
[2]; [39]
  Relative MIC: 4
[2]; [40]
  Relative MIC: 4
[2]; [41]
  Relative MIC: 4
[2]; [42]
  MIC: 0.0625 µg/mL
[2]; [43]
  MIC: 0.125 µg/mL
[2]; read-out: MIC of evolved line, Klebsiella pneumoniae ATCC 10031 (KP-SEN), evolved line 3
  MIC: 0.0625 µg/mL
[2]; [44]
  MIC: 4 µg/mL
[2]; [45]
  MIC: 4 µg/mL
[2]; read-out: MIC of evolved line, Klebsiella pneumoniae ATCC 700603 (KP-MDR), evolved line 3
  MIC: 4 µg/mL

## CN[C@@H]1[C@@H](O[C@H]2O[C@H](CO)[C@@H](N)[C@H](O)[C@H]2O)OC2C[C@@H](N)[C@@H](O[C@H]3[C@H](O)[C@@H](O)[C@H](N)C[C@@H]3N)OC2[C@@H]1O (stereo partly shown) [Apramycin]
[1]; KP-MDR (ATCC 700603), evolved line 1, MIC of evolved line / MIC of ancestor
  Relative MIC: 8
[1]; [3]
  Relative MIC: 16
[1]; [4]
  Relative MIC: 16
[1]; [5]
  Relative MIC: 4
[1]; [6]
  Relative MIC: 16
[1]; [7]
  Relative MIC: 8
[1]; [8]
  Relative MIC: 4
[1]; [9]
  Relative MIC: 8
[1]; [10]
  Relative MIC: 16
[1]; [11]
  Relative MIC: 8
[1]; KP-MDR (Klebsiella pneumoniae ATCC 700603), evolved line 1 adapted to the named antibiotic
  Relative MIC (log10): 0.9031
[1]; [12]
  Relative MIC (log10): 1.204
[1]; KP-MDR (Klebsiella pneumoniae ATCC 700603), evolved line 3 adapted to the named antibiotic
  Relative MIC (log10): 1.204
[1]; [13]
  Relative MIC (log10): 0.9031
[1]; KP-MDR (Klebsiella pneumoniae ATCC 700603), evolved line 9 adapted to the named antibiotic
  Relative MIC (log10): 1.204
[1]; [14]
  Relative MIC: 64
[1]; [15]
  Relative MIC: 32
[1]; [16]
  Relative MIC: 64
[1]; [17]
  Relative MIC: 64
[1]; [18]
  Relative MIC: 64
[1]; [19]
  Relative MIC: 64
[1]; KP-SEN (ATCC 10031), evolved line 10, MIC of evolved line / MIC of ancestor
  Relative MIC: 128
[1]; KP-SEN (Klebsiella pneumoniae ATCC 10031), evolved line 2 adapted to the named antibiotic
  Relative MIC (log10): 1.806
[1]; KP-SEN (Klebsiella pneumoniae ATCC 10031), evolved line 5 adapted to the named antibiotic
  Relative MIC (log10): 1.806
[1]; KP-SEN (Klebsiella pneumoniae ATCC 10031), evolved line 6 adapted to the named antibiotic
  Relative MIC (log10): 1.806
[1]; [20]
  Relative MIC (log10): 1.806
[1]; KP-SEN (Klebsiella pneumoniae ATCC 10031), evolved line 10 adapted to the named antibiotic
  Relative MIC (log10): 2.107
[1]; [21]
  Relative MIC: 64
[1]; [22]
  Relative MIC: 32
[1]; [23]
  Relative MIC: 64
[1]; [24]
  Relative MIC: 64
[1]; [25]
  Relative MIC: 64
[1]; [26]
  Relative MIC: 64
[1]; Klebsiella pneumoniae ATCC 10031 (KP-SEN), evolved line 10
  Relative MIC: 128
[1]; Klebsiella pneumoniae ATCC 700603 (KP-MDR), evolved line 1
  Relative MIC: 8
[1]; [27]
  Relative MIC: 16
[1]; [28]
  Relative MIC: 16
[1]; [29]
  Relative MIC: 4
[1]; [30]
  Relative MIC: 16
[1]; [31]
  Relative MIC: 8
[1]; [32]
  Relative MIC: 4
[1]; [33]
  Relative MIC: 8
[1]; [34]
  Relative MIC: 16
[1]; [35]
  Relative MIC: 8
[2]; [36]
  Relative MIC: 8
[2]; [37]
  Relative MIC: 8
[2]; [38]
  Relative MIC: 2
[2]; [39]
  Relative MIC: 2
[2]; [40]
  Relative MIC: 2
[2]; [41]
  Relative MIC: 1
[2]; [42]
  MIC: 16 µg/mL
[2]; [43]
  MIC: 16 µg/mL
[2]; [44]
  MIC: 8 µg/mL
[2]; [45]
  MIC: 8 µg/mL

From article PMC11845477, “Exploring the principles behind antibiotics with limited resistance” (Nature Communications, 2025)
